The test system of assay [1] is mice with DSS-induced bowel inflammation. Briefly: DSS-induced bowel inflammation in C57BL/6 mice (body weight, defecation, colon length, histopathology). To be noted: for histopathological scoring: p<0.01 vs model, FIG. 4. The class given is in vivo. The protocol: Dextran sulfate sodium (DSS) has an anticoagulant effect and, when orally administered to experimental animals, can cause hyperemia, ulcers, submucosal edema in bowel tissue and other pathological manifestations closely similar to those of clinical IBD patients. Models of DSS-induced bowel inflammation can be taken as basic models for studying the pathogenesis of UC and even IBD and evaluating the efficacy of therapeutic medicaments. In this example, therapeutic effects of koumine were evaluated in a C57BL/6 mouse model of DSS-induced bowel inflammation with the animals' body weight, defecation, pathological manifestations of colonic tissue, expression of MPO in colonic tissue and the like as indicators.
1.1. Experimental Animals Six to eight week old healthy male SPF C57BL/6 mice (weighing 18-22 g) were purchased from Shanghai SLAC Laboratory Animal Co., Ltd. (License No. SOCK (Shanghai) 2017-0005). Prior to study start, the mice were acclimated for 7 days until their body weights reached 20±2 g. They were bred under conditions of a 12/12-h light-dark cycle (light on 8:00-20:00), constant temperature (20-26° C.) and constant humidity (40-70%), with food and water provided ad libitum. Experimental operations were conducted in accordance with regulations of international and local committees on care and use of laboratory animals (the same applies below).
(§1) 1.2. Medicaments and Reagents Koumine hydrochloride (C20H22N2O·HCl) (in the form of a powder) was prepared in the School of Pharmacy, Fujian Medical University (Batch No. KM201610, with a purity of 99.99% as determined by high performance liquid chromatography), stored at 4° C. in the dark, and dissolved in normal saline to a desired concentration before use. DSS was purchased from MP Biomedicals, USA and fully dissolved in distilled water to a desired concentration before use. Mesalazine enteric coated tablets were purchased from Heilongjiang Tianhong Pharmaceutical Co., Ltd. A citrate (pH=6.0) antigen retrieval solution, BSA, an anti-myeloperoxidase primary antibody, an HRP-conjugated goat anti-rabbit secondary antibody and a histochemistry kit for DAB staining were purchased from Wuhan Servicebio Technology Co., Ltd. (the same applies below).
(§2) Fifty-one healthy SPF C57BL/6 mice were randomly assigned into a blank control group (n=6), a model group (n=9) and 4 treatment groups (n=9 for each) respectively administered with low (0.67 mg/kg), medium (2 mg/kg) and high (6 mg/kg) doses of koumine, as well as mesalazine (100 mg/kg) as a positive control. A mouse model of DSS-induced bowel inflammation was established by allowing the mice in the model group and the individual treatment groups to have free access to a 2.5% DSS solution in water for 8 days and providing ad libitum access to normal water to the mice in the blank control group. From the day of induction (D0), the mice in the treatment groups received intragastric administration (0.1 mL/10 g) once a day for 9 consecutive days (D0-D8), while those in the control and model groups were given the same volumes of normal saline also by intragastric administration throughout the same period. Body weight measurements were taken and fecal occult blood tests were performed daily. One hour after the last administration (D8), the mice were sacrificed by cervical dislocation under anesthesia. Immediately after that, a bowel segment from the terminal ileum to the anus was removed from each mouse, and a length from the ileocolonic junction to the anus was measured and recorded. Colonic tissue was taken 1 cm away from the anus for histopathological examination, as well as for immunohistochemical detection for the expression of MPO. Additionally, colonic tissue was taken 1-2 cm away from the anus for MPO activity determination.

Assay [2] has as its system myeloperoxidase (MPO). Put plainly: Immunohistochemical detection of MPO expression in colonic tissue, DSS model. The class given is in vivo, C57BL/6 mice. Here is the method:
as §1, §2

Assay [3] relates to mice with OXA-induced colitis. Put plainly: OXA-induced colitis in BALB/c mice (body weight, colon length, histomorphology). The class given is in vivo. From the text: OXA-induced colitis causes lesions primarily in the distal colon and resembles human IBD in terms of histological characteristics and distribution of inflammation, which can be manifested as a decrease in goblet cells.
Six to eight week old healthy male SPF BALB/c mice were purchased from Shanghai SLAC Laboratory Animal Co., Ltd. (License No. SOCK (Shanghai) 2017-0005).
The same koumine hydrochloride and mesalazine as in Example 1 were used. OXA was purchased from Sigma, USA and prepared in the form of a solution before use by fully dissolving it in absolute ethanol preheated to 35° C. When used for an enema, the solution was diluted 1-fold with normal saline to a desired concentration. Absolute ethanol was purchased from Merck, Germany. All the other reagents were the same as in Example 1.
Seventy-four BALB/c mice were randomly assigned into a blank control group (n=6), a vehicle control group (n=10), a model group (n=19) and low-dose (n=10), medium-dose (n=9) and high-dose (n=12) koumine treatment groups and another treatment group (n=8) administered with mesalazine as a positive control. A mouse model of OXA-induced UC was established by sensitizing and then giving enemas to the mice in the model group and the individual treatment groups. Specifically, each of the mice was anesthetized and sensitized by drop-wise applying a 3% solution (150 μL) of OXA in absolute ethanol to a shaved abdominal area (about 1.5 cm×1.5 cm), and received an enema using a 1% solution of OXA in 50% ethanol (100 μL) five days following the sensitization (D0). The mice in the vehicle and blank control groups were treated similarly, except for drop-wise application of 150 μL absolute ethanol and normal saline in the sensitization phase, respectively, and use of 100 μL of 50% ethanol and the same volume of normal saline in the enema phase, respectively. From the day of enema administration (D0), the mice in the treatment groups received intragastric administration (0.1 mL/10 g) once a day for 4 consecutive days (D0-D3). The daily dosage of koumine and the positive control mesalazine to the treatment groups was the same as in Example 1, and the vehicle control group was given the same volumes of 50% ethanol. Bowel inflammation evaluation of the animals was conducted in the same manner using the same indicators as in Example 1.

Assay [4] has as its system myeloperoxidase (MPO). Put plainly: Immunohistochemical detection of MPO expression in colonic tissue, OXA model. The class given is in vivo, BALB/c mice. Here is the method: […]

Assay [5] has as its system myeloperoxidase (MPO). Put plainly: MPO activity assay in colonic tissue homogenates, OXA model. To be noted: p<0.01, p<0.001 vs model, FIG. 10. The class given is in vivo, BALB/c mice. Here is the method: […]

Where [6] appears, read: mesalazine 100 mg/kg intragastric.

Molecules are shown by their SMILES.

Turning to `C=CC12CN(C)C3CC14C(=Nc1ccccc14)C1CC2C3CO1` (centres unmarked) [koumine], the defecation and hematochezia result is “fewer times of defecation and mitigated hematochezia” in assay [1] (high dose 6 mg/kg intragastric once a day); “fewer times of defecation and mitigated hematochezia” in assay [1] (medium dose 2 mg/kg intragastric once a day). Moreover, in assay [1] (koumine 0.67, 2, 6 mg/kg intragastric once a day), the “gross damage and hyperemia of bowel mucosa” value is “ameliorate damage, hyperemia and the like”. Besides, the “symptom of weight loss” value in assay [1] (koumine 0.67, 2, 6 mg/kg intragastric once a day D0-D8, FIG. 1) is “alleviate the symptom of weight loss”. For the same molecule, the colon shortening entry in assay [1] (koumine 0.67, 2, 6 mg/kg intragastric once a day, FIG. 2) is recorded as “dose-dependently reduce colon shortening”; in assay [3] (low dose 0.67 mg/kg intragastric, p<0.01 vs model, FIG. 7), “significantly reduce their colon shortening”. The “microscopic manifestations of HE-stained colonic tissue” value in assay [1] (koumine 0.67, 2, 6 mg/kg intragastric, FIG. 3 C-E) is “reduced inflammatory cell infiltration”; in assay [3] (high dose 6 mg/kg intragastric, FIG. 8 E), “infiltration of only a small number of inflammatory cells”; in assay [3] (low dose 0.67 mg/kg intragastric, FIG. 8 C), “slightly milder symptoms than the symptoms of the model group”; in assay [3] (medium dose 2 mg/kg intragastric, FIG. 8 D), “infiltration of only a small number of inflammatory cells”. The histopathological scoring entry in assay [1] (koumine high dose 6 mg/kg intragastric) is “significantly inhibit increases in the sore of the model group”. Also, the “average body weight vs model group” value is “significantly higher than that of those in the model group” in assay [1] (low dose 0.67 mg/kg intragastric once a day, as early as D6 (seventh day of administration), p<0.05, FIG. 1); “significantly higher than that of those in the model group” in assay [1] (medium dose 2 mg/kg intragastric once a day, from D5 (sixth day of administration), p<0.05 and p<0.01, FIG. 1). Also, in assay [1] (low dose 0.67 mg/kg intragastric, eighth day of administration, p<0.05, FIG. 2), the “colon length vs model group” value is recorded as “significantly greater than that of the model group”. Moreover, the “expression of MPO in colonic tissue” value is listed as “lowered the expression of MPO to different extents” with myeloperoxidase (MPO) [2] (high dose 6 mg/kg intragastric, FIG. 5 E); “did not lead to any noticeable decrease in the expression of MPO” in the assay on myeloperoxidase (MPO) [2] (low dose 0.67 mg/kg intragastric, FIG. 5 C); “lowered the expression of MPO to different extents” in the assay on myeloperoxidase (MPO) [2] (medium dose 2 mg/kg intragastric, FIG. 5 D); “suppressed expression of MPO to varying extents” in the assay with myeloperoxidase (MPO) [4] (koumine at the different doses (0.67, 2, 6 mg/kg) intragastric, FIG. 9 C-E). The “gross manifestations of colonic tissue (hyperemia, redness and swelling)” value is “remarkable relief of most manifestations of colonic tissue” in assay [3] (high dose 6 mg/kg intragastric); “appeared to not mitigate the manifestations” in assay [3] (low dose 0.67 mg/kg intragastric); “not seen with severe redness and swelling, hyperemia or other inflammatory manifestations” in assay [3] (medium dose 2 mg/kg intragastric). Moreover, the body weight loss result in assay [3] (koumine 0.67, 2, 6 mg/kg intragastric once a day D0-D3, FIG. 6) is listed as “alleviate body weight loss of mice with colitis in a dose-dependent manner”. Moreover, in assay [3] (koumine 0.67, 2, 6 mg/kg intragastric, FIG. 7), the “positive effect on colon length” value is “dose-dependent”. Moreover, in the assay with myeloperoxidase (MPO) [5] (koumine at the different doses (0.67, 2, 6 mg/kg) intragastric), the “enzymatic activity of MPO in colonic tissue” value is reported as “significantly reduced enzymatic activity per unit weight”.

As to `Nc1ccc(O)c(C(=O)O)c1` [mesalazine, reference compound], the “microscopic manifestations of HE-stained colonic tissue” value was “obvious improvements over the model group mice” in assay [1] (mesalazine 100 mg/kg intragastric, FIG. 3 F) and “infiltration of only a small number of inflammatory cells” in assay [3] (mesalazine 100 mg/kg intragastric, FIG. 8 F). Moreover, the histopathological scoring entry in assay [1] (setting [6]) is “significantly inhibit increases in the sore of the model group”. Further, the “expression of MPO in colonic tissue” value is “lowered the expression of MPO to different extents” in the assay on myeloperoxidase (MPO) [2] (mesalazine 100 mg/kg intragastric, FIG. 5 F) and “suppressed expression of MPO to varying extents” with myeloperoxidase (MPO) [4] (mesalazine 100 mg/kg intragastric, FIG. 9 F). In addition, in assay [3] (mesalazine 100 mg/kg intragastric once a day D0-D3, FIG. 6), the “effect of alleviating body weight loss” value was “comparable to that of the medium dose of koumine”. Besides, the “positive effect on colon length” value in assay [3] (mesalazine 100 mg/kg intragastric, FIG. 7) was “comparable to that of koumine at 6 mg/kg”. Also, the “enzymatic activity of MPO in colonic tissue” value in the assay with myeloperoxidase (MPO) [5] (setting [6]) is on record as “significantly reduced enzymatic activity per unit weight”.

The values above are taken from patent publication US11925634B2, “Use of koumine in preparation of medicament for treatment of inflammatory bowel disease” (Fujian Medical University, priority 2019, dated 2024).
